In this test the target is T1, vanilloid receptor (Rattus norvegicus, UniProt O35433).
T1 construct: DRG nerve cells from the primary culture of 2 days were equilibrated; endogenous in cells; host or cells: primary culture of dorsal root ganglion neurons from neonatal SD rats
T1 sequence (O35433 whole entry): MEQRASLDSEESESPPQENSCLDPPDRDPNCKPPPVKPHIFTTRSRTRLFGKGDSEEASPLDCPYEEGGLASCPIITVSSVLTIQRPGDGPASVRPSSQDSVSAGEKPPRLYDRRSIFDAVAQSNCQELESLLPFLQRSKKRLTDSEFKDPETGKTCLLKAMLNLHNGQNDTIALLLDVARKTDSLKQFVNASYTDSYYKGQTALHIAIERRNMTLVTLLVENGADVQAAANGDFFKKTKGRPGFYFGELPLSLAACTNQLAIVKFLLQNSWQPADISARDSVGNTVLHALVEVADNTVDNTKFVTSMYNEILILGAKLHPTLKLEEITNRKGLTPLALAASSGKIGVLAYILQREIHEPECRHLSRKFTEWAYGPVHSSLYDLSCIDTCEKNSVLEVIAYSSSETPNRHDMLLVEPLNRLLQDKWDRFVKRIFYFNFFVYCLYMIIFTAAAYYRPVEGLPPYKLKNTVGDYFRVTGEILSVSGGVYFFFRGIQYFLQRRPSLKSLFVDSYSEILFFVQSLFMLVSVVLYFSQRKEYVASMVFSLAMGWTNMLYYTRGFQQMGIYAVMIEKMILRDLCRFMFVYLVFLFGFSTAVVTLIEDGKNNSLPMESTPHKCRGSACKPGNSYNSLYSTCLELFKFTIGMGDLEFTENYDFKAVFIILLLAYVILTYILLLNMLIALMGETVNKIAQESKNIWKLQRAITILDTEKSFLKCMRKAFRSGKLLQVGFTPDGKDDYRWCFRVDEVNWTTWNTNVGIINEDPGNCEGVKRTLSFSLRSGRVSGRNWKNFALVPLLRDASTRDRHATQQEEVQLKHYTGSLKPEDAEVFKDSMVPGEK
Kind of test: 45Ca influx test in cultured neonatal rat DRG neurons, inhibition of capsaicin response. Format: cell-based. Conditions: neonatal rat DRG neurons, capsaicin 0.5 μM, 45Ca influx; read-out: Antagonist Calcium Uptake Test (IC50). In short, it runs like this: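 Neonatal SD rat DRG neurons, cultured 2 days with NGF (200 ng/ml) and Ara-C, were washed in HEPES (10 mM, pH 7.4)-buffered Ca/Mg-free HBSS. Test compound was added with capsaicin (final 0.5 μM) and 45Ca (10 μCi/ml) for 10 min at room temperature; 45Ca uptake counted by scintillation after SDS elution.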
For the compound `CS(=O)(=O)Nc1ccc(CNC(=O)/C=C/c2ccc(C(F)(F)F)nc2Sc2ccccc2)cc1F` [Example 140, N-(3-fluoro-4-methanesulfonylamino-benzyl)-3-(2-phenylthio-6-trifluoromethyl-pyridin-3-yl)-acrylamide], the IC50 was 9700 nM.
Then `CS(=O)(=O)Nc1ccc(CNC(=O)/C=C/c2ccc(C(F)(F)F)nc2CCc2ccccc2)cc1F` [Example 141, N-(3-Fluoro-4-methanesulfonylamino-benzyl)-3-(2-phenethyl-6-trifluoromethyl-pyridin-3-yl)-acrylamide], with 180 nM; and `C#Cc1cc(CNC(=O)/C=C/c2ccc(C(F)(F)F)nc2CCc2ccccc2)cc(F)c1NS(C)(=O)=O` [Example 142, N-(3-Ethynyl-5-fluoro-4-methanesulfonylamino-benzyl)-3-(2-phenethyl-6-trifluoromethyl-pyridin-3-yl)-acrylamide], with 35 nM; and `CCCCc1nc(C(F)(F)F)ccc1/C=C/C(=O)NCc1ccc(NS(C)(=O)=O)c(F)c1` [Example 143, 3-(2-Butyl-6-trifluoromethyl-pyridin-3-yl)-N-(3-fluoro-4-methanesulfonylamino-benzyl)-acrylamide], with 200 nM.
Consider `C#Cc1cc(CNC(=O)/C=C/c2ccc(C(F)(F)F)nc2CCCC)cc(F)c1NS(C)(=O)=O` [Example 144, 3-(2-Butyl-6-trifluoromethyl-pyridin-3-yl)-N-(3-ethynyl-5-fluoro-4-methanesulfonylamino-benzyl)-acrylamide], for which the IC50 turned out to be 33 nM.
In the case of `C#Cc1cc(CNC(=O)C=Cc2ccc(C(F)(F)F)nc2C#C)cc(F)c1NS(C)(=O)=O` [Example 145, N-(3-Ethynyl-5-fluoro-4-methanesulfonylamino-benzyl)-3-(2-ethynyl-6-trifluoromethyl-pyridin-3-yl)-acrylamide], the IC50 came out at 1900 nM.
With `CC(C)Cc1nc(C(F)(F)F)ccc1/C=C/C(=O)NCc1ccc(NS(C)(=O)=O)c(F)c1` [Example 147, N-(3-Fluoro-4-methanesulfonylamino-benzyl)-3-(2-isobutyl-6-trifluoromethyl-pyridin-3-yl)-acrylamide], the IC50 came out at 220 nM.
As for `C#Cc1cc(CNC(=O)/C=C/c2ccc(C(F)(F)F)nc2CC(C)C)cc(F)c1NS(C)(=O)=O` [Example 148, N-(3-Ethynyl-5-fluoro-4-methanesulfonylamino-benzyl)-3-(2-isobutyl-6-trifluoromethyl-pyridin-3-yl)-acrylamide], the IC50 came out at 51 nM.
`C[C@@H](NC(=O)/C=C/c1ccc(C(F)(F)F)nc1Nc1ccccc1)c1ccc(NS(C)(=O)=O)c(F)c1` [Example 149, (R)—N-[1-(3-Fluoro-4-methanesulfonylamino-phenyl)-ethyl]-3-(2-phenylamino-6-trifluoromethyl-pyridin-3-yl)-acrylamide]: the IC50 was 250 nM.
As to `C#Cc1cc(CNC(=O)/C=C/c2ccc(C(F)(F)F)nc2CC)cc(F)c1NS(C)(=O)=O` [Example 150, 3-(2-Ethyl-6-trifluoromethyl-pyridin-3-yl)-N-(3-ethynyl-5-fluoro-4-methanesulfonylamino-benzyl)-acrylamide], the IC50 worked out at 210 nM.
With `CCC(C)Cc1nc(C(F)(F)F)ccc1/C=C/C(=O)NCc1ccc(NS(C)(=O)=O)c(F)c1` (stereo not drawn) [Example 151, N-(3-Fluoro-4-methanesulfonylamino-benzyl)-3-[2-(2-methyl-butyl)-6-trifluoromethyl-pyridin-3-yl]-acrylamide], the IC50 was determined as 150 nM.
In the case of `C#Cc1cc(CNC(=O)/C=C/c2ccc(C(F)(F)F)nc2CC(C)CC)cc(F)c1NS(C)(=O)=O` (stereo not drawn) [Example 152, N-(3-Ethynyl-5-fluoro-4-methanesulfonylamino-benzyl)-3-[2-(2-methyl-butyl)-6-trifluoromethyl-pyridin-3-yl]-acrylamide], the IC50 worked out at 43 nM.
As for `C#Cc1cc(CNC(=O)/C=C/c2ccc(C(F)(F)F)nc2C#CCOC)cc(F)c1NS(C)(=O)=O` [Example 153, N-(3-Ethynyl-5-fluoro-4-methanesulfonylamino-benzyl)-3-[2-(3-methoxy-prop-1-ynyl)-6-trifluoromethyl-pyridin-3-yl]-acrylamide], the IC50 amounted to 1100 nM.
Take `COCC#Cc1nc(C(F)(F)F)ccc1/C=C/C(=O)NCc1ccc(NS(C)(=O)=O)c(F)c1` [Example 154, N-(3-Fluoro-4-methanesulfonylamino-benzyl)-3-[2-(3-methoxy-prop-1-ynyl)-6-trifluoromethyl-pyridin-3-yl]-acrylamide]: the IC50 is 2100 nM.
Then `C#Cc1cc(CNC(=O)/C=C/c2ccc(C(F)(F)F)nc2CCCOC)cc(F)c1NS(C)(=O)=O` [Example 155, N-(3-Ethynyl-5-fluoro-4-methanesulfonylamino-benzyl)-3-[2-(3-methoxy-propyl)-6-trifluoromethyl-pyridin-3-yl]-acrylamide], with 780 nM; and `COCCCc1nc(C(F)(F)F)ccc1/C=C/C(=O)NCc1ccc(NS(C)(=O)=O)c(F)c1` [Example 156, N-(3-Fluoro-4-methanesulfonylamino-benzyl)-3-[2-(3-methoxy-propyl)-6-trifluoromethyl-pyridin-3-yl]-acrylamide], with 2200 nM; and `C#Cc1cc(CNC(=O)/C=C/c2ccc(C(F)(F)F)nc2/C=C/c2ccccc2)cc(F)c1NS(C)(=O)=O` [Example 157, N-(3-Ethynyl-5-fluoro-4-methanesulfonylamino-benzyl)-3-(2-styryl-6-trifluoromethyl-pyridin-3-yl)-acrylamide], with 450 nM.
As to `CCCN(C)c1nc(C(F)(F)F)ccc1/C=C/C(=O)NCc1ccc(NS(C)(=O)=O)c(F)c1` [Example 158, N-(3-Fluoro-4-methanesulfonylamino-benzyl)-3-[2-(N-methyl-N-propyl-amino)-6-trifluoromethyl-pyridin-3-yl]-acrylamide], the IC50 was found to be 480 nM.
Then `C#Cc1cc(CNC(=O)/C=C/c2ccc(C(F)(F)F)nc2N(C)CCC)cc(F)c1NS(C)(=O)=O` [Example 159, N-(3-Ethynyl-5-fluoro-4-methanesulfonylamino-benzyl)-3-[2-(N-methyl-N-propyl-amino)-6-trifluoromethyl-pyridin-3-yl]-acrylamide], with 270 nM.
`CCOCc1nc(C(F)(F)F)ccc1/C=C/C(=O)NCc1ccc(NS(C)(=O)=O)c(F)c1` [Example 160, N-(3-Fluoro-4-methanesulfonylamino-benzyl)-3-(2-ethoxymethyl-6-trifluoromethyl-pyridin-3-yl)-acrylamide]: the IC50 came to 2400 nM.
For `C#Cc1cc(CNC(=O)/C=C/c2ccc(C(F)(F)F)nc2COCC)cc(F)c1NS(C)(=O)=O` [Example 161, N-(3-Ethynyl-5-fluoro-4-methanesulfonylamino-benzyl)-3-(2-ethoxymethyl-6-trifluoromethyl-pyridin-3-yl)-acrylamide], the IC50 was determined as 550 nM.
Consider `CCC(C)Oc1nc(C(F)(F)F)ccc1/C=C/C(=O)NCc1ccc(NS(C)(=O)=O)c(C)c1` (stereo not drawn) [Example 162, 3-(2-sec-Butoxy-6-trifluoromethyl-pyridin-3-yl)-N-(4-methanesulfonylamino-3-methyl-benzyl)-acrylamide], for which the IC50 was 120 nM.
To `CC(C)Cc1nc(C(F)(F)F)ccc1/C=C/C(=O)NCc1cc(F)c(NS(C)(=O)=O)c(C#N)c1` [Example 163, N-(3-Cyano-5-fluoro-4-methanesulfonylamino-benzyl)-3-(2-isobutyl-6-trifluoromethyl-pyridin-3-yl)-acrylamide] belongs 150 nM.
To `Cc1cc(CNC(=O)/C=C/c2ccc(C(F)(F)F)nc2CC(C)C)cc(F)c1NS(C)(=O)=O` [Example 164, N-(3-Fluoro-4-methanesulfonylamino-5-methyl-benzyl)-3-(2-isobutyl-6-trifluoromethyl-pyridin-3-yl)-acrylamide] belongs 83 nM; to `C[C@@H](NC(=O)/C=C/c1ccc(C(F)(F)F)nc1N(C)c1ccccc1)c1ccc(NS(C)(=O)=O)c(F)c1` [Example 165, (R)—N-[1-(3-Fluoro-4-methanesulfonylamino-phenyl)-ethyl]-3-[2-(methyl-phenylamino)-6-trifluoromethyl-pyridin-3-yl]-acrylamide], 160 nM.
To `C#Cc1cc(CNC(=O)/C=C/c2ccc(C(F)(F)F)nc2N(C)c2ccccc2)cc(F)c1NS(C)(=O)=O` [Example 166, N-(3-Ethynyl-5-fluoro-4-methanesulfonylamino-benzyl)-3-[2-(methyl-phenylamino)-6-trifluoromethyl-pyridin-3-yl]-acrylamide] belongs 69 nM; to `Cc1cc(CNC(=O)/C=C/c2ccc(C(F)(F)F)nc2N(C)c2ccccc2)ccc1NS(C)(=O)=O` [Example 167, N-(4-methanesulfonylamino-3-methyl-benzyl)-3-[2-(methyl-phenylamino)-6-trifluoromethyl-pyridin-3-yl]-acrylamide], 120 nM; to `CCCCOc1nc(C(F)(F)F)ccc1/C=C/C(=O)NCc1cc(F)c(NS(C)(=O)=O)c(C(F)(F)F)c1` [Example 168, 3-(2-Butoxy-6-trifluoromethyl-pyridin-3-yl)-N-(3-fluoro-4-methanesulfonylamino-5-trifluoromethyl-benzyl)-acrylamide], 1800 nM.
Take `CCCCOc1nc(C(F)(F)F)ccc1/C=C/C(=O)N[C@H](C)c1ccc(NS(C)(=O)=O)c(F)c1` [Example 169, (R)-3-(2-Butoxy-6-trifluoromethyl-pyridin-3-yl)-N-[1-(3-fluoro-4-methanesulfonylamino-phenyl)-ethyl]-acrylamide]: the IC50 was determined as 170 nM.
Turning to `CCCCOc1nc(C(F)(F)F)ccc1/C=C/C(=O)NCc1ccc(NS(C)(=O)=O)c(C)c1` [Example 170, 3-(2-Butoxy-6-trifluoromethyl-pyridin-3-yl)-N-(4-methanesulfonylamino-3-methyl-benzyl)-acrylamide], the IC50 was 340 nM.

The values are drawn from patent publication US7858621B2 (Amorepacific Corporation, priority 2006, dated 2010).
